Reference: the supplement of paper PMC10307832

What was measured:
Test in all cases: relative viability (nuclei count vs DMSO), 5 days (fraction); higher = more cells survive
[1] = compound: O=c1[nH]cc(F)c(=O)[nH]1 [5-Fluorouracil] + Cc1cc(Nc2cc(N3CCN(C)CC3)nc(Sc3ccc(NC(=O)C4CC4)cc3)n2)n[nH]1 [Tozasertib] (partner 0.1 µM)
In short: (§1)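 Relative viability was taken as the ratio of nuclei in treated wells to nuclei in vehicle wells. Lung cancer cell lines in 1536-well plates received compounds by pin tool one day after seeding, either one drug alone or a fixed anchor-drug dose plus five library-drug doses (not always all listed) in √10 steps. Nuclei were counted on 4× images after 5 days of treatment, and values are medians of duplicate plates.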

Sulindac + Linsitinib = compound: CC1=C(CC(=O)O)c2cc(F)ccc2/C1=C\c1ccc([S+](C)[O-])cc1 [Sulindac] + C[C@]1(O)C[C@@H](c2nc(-c3ccc4ccc(-c5ccccc5)nc4c3)c3c(N)nccn32)C1 [Linsitinib] (partner 1 µM)
In short: as §1

[2] = compound: O=c1[nH]cc(F)c(=O)[nH]1 [5-Fluorouracil] + C[C@]1(O)C[C@@H](c2nc(-c3ccc4ccc(-c5ccccc5)nc4c3)c3c(N)nccn32)C1 [Linsitinib] (partner 1 µM)
In short: as §1

Sulindac + Foretinib = compound: CC1=C(CC(=O)O)c2cc(F)ccc2/C1=C\c1ccc([S+](C)[O-])cc1 [Sulindac] + COc1cc2c(Oc3ccc(NC(=O)C4(C(=O)Nc5ccc(F)cc5)CC4)cc3F)ccnc2cc1OCCCN1CCOCC1 [Foretinib] (partner 0.25 µM)
In short: as §1

Row | Cell Line | relative viability ([1]; first compound 0.02 µM) | relative viability ([1]; first compound 0.2 µM) | relative viability ([1]; first compound 0.6325 µM) | relative viability ([1]; first compound 2 µM) | relative viability (Sulindac + Linsitinib; first compound 0.08 µM) | relative viability (Sulindac + Linsitinib; first compound 0.253 µM) | relative viability (Sulindac + Linsitinib; first compound 0.8 µM) | relative viability (Sulindac + Linsitinib; first compound 2.53 µM) | relative viability (Sulindac + Linsitinib; first compound 8 µM) | relative viability ([2]; first compound 0.02 µM) | relative viability ([2]; first compound 0.2 µM) | relative viability ([2]; first compound 0.6325 µM) | relative viability ([2]; first compound 2 µM) | relative viability (Sulindac + Foretinib; first compound 0.08 µM) | relative viability (Sulindac + Foretinib; first compound 0.253 µM) | relative viability (Sulindac + Foretinib; first compound 2.53 µM) | relative viability (Sulindac + Foretinib; first compound 8 µM) | relative viability (Sulindac + Foretinib; first compound 0.8 µM)
1 | NCI-H1355 | 0.529 | 0.366 | 0.258 | 0.226 | 0.873 | 0.949 | 0.777 | 0.785 | 0.883 | 0.639 | 0.681 | 0.398 | 0.314 | 1.16 | 1.04 | 1.07 | 0.987 | 
2 | NCI-H1395 | 0.652 | 0.837 | 0.737 | 0.8 | 1.09 | 1.07 | 0.993 | 0.948 | 1.18 | 0.884 | 1.19 | 1.03 | 1.25 | 0.845 | 1.02 | 0.906 | 1.1 | 0.949
3 | NCI-H1437 | 0.34 | 0.259 | 0.191 | 0.139 | 1.33 | 1.14 | 0.628 | 1.09 | 1.26 |  | 0.26 | 0.169 | 0.119 | 1.33 | 1.23 | 1.28 | 1.42 | 1
4 | NCI-H1651 | 0.626 | 0.602 | 0.543 | 0.441 | 1.1 | 1.01 | 0.777 | 0.955 | 1.27 | 0.973 | 0.859 | 0.602 | 0.468 | 0.899 | 0.848 | 0.764 | 0.88 | 
5 | NCI-H1666 | 0.672 | 0.446 | 0.4 | 0.399 |  | 0.797 | 0.854 | 0.779 | 0.854 | 0.777 | 0.412 | 0.401 | 0.321 | 1.01 | 1.02 | 0.975 | 1.13 | 0.908
6 | NCI-H1734 | 0.249 | 0.261 | 0.241 | 0.237 | 0.987 | 0.932 | 0.575 | 0.903 | 1.13 | 0.762 | 1.05 | 0.706 | 0.546 | 0.864 | 0.956 | 1.03 | 0.958 | 
7 | NCI-H1755 | 0.643 | 0.523 | 0.309 | 0.28 | 1.16 | 1.07 | 0.906 | 1 | 1.05 | 0.96 | 0.796 | 0.322 | 0.254 | 0.976 | 0.974 | 0.916 | 1.03 | 0.848
8 | NCI-H1793 | 0.318 | 0.349 | 0.398 | 0.251 | 0.856 | 0.77 | 0.471 | 1.12 | 1.12 | 0.691 | 0.92 | 0.815 | 0.496 | 0.759 | 0.808 | 0.748 | 0.736 | 0.54
9 | NCI-H1915 | 0.376 | 0.418 | 0.433 | 0.331 | 1.13 | 1.14 | 1.09 | 1.11 | 1.07 | 1.06 | 1.1 | 1.03 | 0.803 | 1.26 | 1.2 | 1.11 | 1.15 | 
